Assay results as given in publication PMC6934184, “Selective DNA-PKcs inhibition extends the therapeutic index of localized radiotherapy and chemotherapy” (The Journal of Clinical Investigation, 2019).

Molecular target: T1, SRPK1 (Homo sapiens, UniProt Q96SB4)
T1 construct: purchased Thermo Fisher Scientific (Life Technologies) SelectScreen
Assay: SelectScreen Z'LYTE
Assay type: biochemical
Outline: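 SelectScreen broad panel; activity (Z'LYTE, Adapta) plus binding formats. ATP: Km app for CSF1R Z'LYTE; 10 for CAMK1 Adapta. Readout = % per kinase.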

T1 sequence (Q96SB4 whole entry): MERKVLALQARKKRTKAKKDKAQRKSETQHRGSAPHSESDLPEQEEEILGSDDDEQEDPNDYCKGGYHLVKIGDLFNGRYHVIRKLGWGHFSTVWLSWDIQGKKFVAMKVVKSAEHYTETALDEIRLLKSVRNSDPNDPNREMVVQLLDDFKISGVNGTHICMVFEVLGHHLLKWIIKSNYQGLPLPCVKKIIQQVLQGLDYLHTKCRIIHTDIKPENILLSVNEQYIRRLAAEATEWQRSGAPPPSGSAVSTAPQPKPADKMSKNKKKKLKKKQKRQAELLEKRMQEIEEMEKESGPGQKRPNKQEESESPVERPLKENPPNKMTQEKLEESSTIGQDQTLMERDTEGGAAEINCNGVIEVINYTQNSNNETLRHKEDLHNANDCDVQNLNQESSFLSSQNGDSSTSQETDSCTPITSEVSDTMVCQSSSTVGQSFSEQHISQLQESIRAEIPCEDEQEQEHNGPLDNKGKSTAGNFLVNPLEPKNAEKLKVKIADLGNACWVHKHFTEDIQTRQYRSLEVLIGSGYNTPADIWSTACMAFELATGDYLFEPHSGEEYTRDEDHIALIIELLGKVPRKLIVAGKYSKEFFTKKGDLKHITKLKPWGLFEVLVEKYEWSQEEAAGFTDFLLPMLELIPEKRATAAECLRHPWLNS

Question: `CN(C(=O)CN1CCOCC1)c1ccc2sc3c(-c4cccc5c(=O)cc(N6CC7CCC(C6)O7)oc45)cccc3c2c1` [NU5455] was tested. Which inhibition at 1 µM did it give?
Answer: The inhibition at 1 µM was -1.1%.
